Assay type in all cases: cell-based, human
The subject of one test is IGROV-1 cells. Nature of the test: Comet assay (DNA damage in single cells). The note with it: IGROV-1, 24 h; 100 μM for Cisplatin and Os-Gly. How it is done:
Comet assays were carried out to determine whether the complexes caused DNA damage in single cells. […] Cisplatin DNA-adducts have been shown previously to inhibit DNA migration through electrophoresis presenting as less tail movement. […] Excess dye was removed, and cells were re-suspended in PBS. Samples were analysed by flow cytometry using the BD FACSMelodyTM Cell Sorter (R653880001) and data analysis on FlowJoTM v10 Software (BD Life Sciences).9 2.11 Apoptosis IGROV-1 cells (1 x 106) were seeded in a 6-well plate and incubated for 24 h at 310 K. Stock solutions (200 μM) of the complexes were prepared by dissolving the compound in 5% (v/v) DMSO followed by dilution with DMEM and then diluted to desired concentrations. All complexes (50 μM and 100 μM) were added to the wells and incubated for 24 h. Cell pellets were collected using 0.25% trypsin and centrifuged (500 x g, 5 mins at 277 K). Cell pellets were washed with PBS and then stained with the commercial Apoptosis Detection Kit-FITC Annexin V and PI (BioLegend; San Diego, USA), as per manufacturer's instructions. Briefly, a staining solution of FITC Annexin V (1 unit/100 μL) diluted 1 in 100 and 1 μg/mL PI was added to the cells (30 min, room temperature). Excess dye was removed, and cells were re-suspended in PBS. Samples were analysed by flow cytometry using the BD FACSMelodyTM Cell Sorter (R653880001) and data analysis on FlowJoTM v10 Software (BD Life Sciences).9 2.12 Comet assay IGROV-1 cells (8×10^5 cells per well) were seeded into 6-well plates and incubated for 24 h. Test compounds (50 μM and 100 μM) were added to the wells and incubated at 3 10 K for 24 h. Cells were enzymatically detached using trypsin and cell concentration adjusted to 2×10^4 cells /mL in ice-cold PBS. 0.4 mL of cell suspension was added to 1.2 mL of 1% low melting point agarose in H 2O, then immediately added to microscope slides pre -coated in 1% agarose. […] Twenty comet images per sample were taken by confocal microscopy and analysed by OpenComet. […]

Test [1] relates to IGROV-1 ovarian carcinoma cells. Kind of test: Antiproliferative activity, SRB assay. The procedure:
(§1) The antiproliferative activity against human A549 lung, IGROV-1 ovarian, and HeLa cervical cancer cell lines and MRC5 normal lung fibroblasts was determined by the sulforhodamine B (SRB) assay. […] IGROV-1 is known to be cisplatin-sensitive and subject to hypermutation.
(§2) 2.8 Mammalian cell culture
(§3) The human ovarian cancer cell line, IGROV-1; the human cervical cancer cell line, HeLa; the human […]; and the human non-cancerous lung fibroblast cell line, MRC5 were cultured in DMEM supplemented with 10% FBS and 100 units/mL of penicillin and 100 µg/mL of streptomycin (1x pen/strep). All cell lines were incubated at 310 K with 5% CO2 and 95% humidity for routine maintenance and during drug treatment.
(§4) 2.9 Sulforhodamine (SRB) cytotoxicity assay
(§5) Cells were seeded at 5 × 10^3 cells per well and incubated at 310 K for 48 h. Stock solutions (200 µM) of the complexes were prepared by dissolving the compound in 5% (v/v) DMSO followed by dilution with DMEM and serial dilutions with DMEM were prepared (0.1 µM-200 The cells were exposed to the drug for 24 h. The drug was then removed, and cells were allowed to recover for 72 h, in drug-free media. Cell viability was then determined by the SRB colorimetric assay. The solubilised dye absorbance was analysed on a microplate reader (Thermo Scientific Multiskan FC with Scanit software 4.1) at 470 nm. Data were normalized using Microsoft Excel, and dose-response curves fitted using Origin 2016. The IC50 values

Test [2] deals with MRC-5 normal lung fibroblasts. Nature of the test: Antiproliferative activity, SRB assay. The procedure:
as §1, §2, §3, §4, §5

For test [3], the system named is A549 lung carcinoma cells. Nature of the test: Antiproliferative activity, SRB assay. The procedure: as §1, §2, §3, §4, §5

Entries after “also recorded” stand apart in the source; their conditions may differ. Bounds are passed on as bounds.

[(p-cymene)Os(L-BSO)Cl] [Os-LBSO]: the “Comet tails vs untreated cells” value with IGROV-1 cells is recorded as “trend toward longer comet tails but this was not significant”. The “Activity against IGROV-1” value in test [1] (IGROV-1, SRB) is recorded as “active”. Moreover, the IC50 in test [1] (IGROV-1, SRB assay, 24 h treatment, 72 h recovery) is 14.6 ± 0.5 µM; in test [2] (MRC-5, SRB assay, 24 h treatment, 72 h recovery), 11.8 ± 0.6 µM; in test [3] (A549, SRB assay, 24 h treatment, 72 h recovery), greater than 200 µM. For the same substance, in test [2] (MRC-5, SRB), the “Activity toward normal lung cells” value was “highly active; also recorded: some activity”. Besides, the “Activity toward lung cancer cells” value in test [3] (A549, SRB) was “inactive”.
